The values that follow are results of earlier work, collected in patent US20140343147A1, “NUTRITIONAL SUPPLEMENT FOR THE ENHANCEMENT OF MUSCLE PERFORMANCE AND RECOVERY AND METHODS OF USE THEREOF” (Maximum Human Performance, LLC, priority 2011, published 2014).

In one data set the test system is humans. Particulars: daily dose.
A further data set deals with rats. Particulars: daily dose.
A further data set deals with mice. The settings on record: iv. in mice, Na-salt.
For data set [1] the following is noted: colorless crystals; water and alcohol.

On to `N[C@H](CC(=O)O)C(=O)O` [D-aspartic acid], for which the luteinizing hormone levels entry in the data set on humans and in the data set with rats was “increase” throughout. Also, the testosterone levels result with humans and with rats was “increase” in each case.

For the compound `CC(C)CC(O)C(=O)O` (stereo not drawn) [HICA, 2-hydroxy-4-methylvaleric acid], in the data set with mice, the LD50 is reported as 650 mg/kg. The solubility entry in data set [1] is “soluble in water and alcohol”.

What is called LD50 is the dose at which mortality reaches 50%.
